Values of other authors in patent US8642581B1, “Compositions and methods for the production of S-adenosylmethionine within the body” (priority 2000, dated 2014).

How the values were obtained:
[1] = 35° C. (95° F.)
[2] = tested on: Depressive symptoms; conditions: 195 patients, 400 mg SAMe parenterally for 15 days
[3] = tested on: beta-adrenergic binding sites; conditions: rats, chronic administration
[4] = tested on: brain membrane; conditions: rats, chronic administration

C[S+](CC[C@H](N)C(=O)O)C[C@H]1O[C@@H](n2cnc3c(N)ncnc32)[C@H](O)[C@@H]1O (some centres unmarked) [SAMe, S-adenosylmethionine]
time SAMe remains stable [1]: 8 to 10 h | serious adverse events [2]: no serious adverse events were reported | Depressive symptoms ([2]; after 7 and 15 days): remitted after both 7 and 15 days | age-related decrease in beta-adrenergic binding sites [3]: prevents | age-related decrease of brain membrane fluidity [4]: prevents
